Test results from patent US7482379B2, “Propenoyl hydrazides” (priority 2004, dated 2009).

What was measured:
Gingipain K = Gingipain K (Porphyromonas gingivalis, UniProt Q51817); assay: biochemical; assay type: biochemical; details: for k2 Gingipain K: Table 3, Suc-Ala-Phe-Lys-AMC substrate, pH 8.0; for kinact/KI: pH 8, read-out: kobs/[I] Gingipain K
Clostripain = Clostripain (Hathewaya histolytica, UniProt P09870); details: Table 3; Z-Phe-Arg-AMC substrate; pH 7.6
Excerpt: Clostripain. […] All data obtained was processed by pseudo-first order kinetics,

Gingipain R = Gingipain R inhibition; assay type: biochemical; details: Table 3
Caspase-7 = molecular target: T1, Caspase-7 (Homo sapiens, UniProt P55210); assay: Caspase-7 progress curve inhibition assay; details: second-order rate constant; Ac-DEVD-AMC substrate; Pipes buffer pH 7.2
T1 sequence (P55210 24-198 limits assumed): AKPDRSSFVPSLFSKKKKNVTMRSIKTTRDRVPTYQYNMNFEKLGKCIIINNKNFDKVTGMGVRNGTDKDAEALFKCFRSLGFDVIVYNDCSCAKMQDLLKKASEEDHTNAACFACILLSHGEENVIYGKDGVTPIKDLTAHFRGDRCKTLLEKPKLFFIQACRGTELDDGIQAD
T1 sequence (P55210 207-303 limits assumed): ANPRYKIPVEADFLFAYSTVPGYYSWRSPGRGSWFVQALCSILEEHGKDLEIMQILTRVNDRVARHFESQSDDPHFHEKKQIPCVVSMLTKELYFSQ

Caspase-9 = molecular target: T2, Caspase-9 (Homo sapiens, UniProt P55211); assay: Caspase-9 progress curve inhibition assay; details: second-order rate constant; Ac-LEHD-AFC substrate; Hepes buffer pH 7.0 with 0.7 M sodium citrate
T2 sequence (P55211 1-315 limits assumed): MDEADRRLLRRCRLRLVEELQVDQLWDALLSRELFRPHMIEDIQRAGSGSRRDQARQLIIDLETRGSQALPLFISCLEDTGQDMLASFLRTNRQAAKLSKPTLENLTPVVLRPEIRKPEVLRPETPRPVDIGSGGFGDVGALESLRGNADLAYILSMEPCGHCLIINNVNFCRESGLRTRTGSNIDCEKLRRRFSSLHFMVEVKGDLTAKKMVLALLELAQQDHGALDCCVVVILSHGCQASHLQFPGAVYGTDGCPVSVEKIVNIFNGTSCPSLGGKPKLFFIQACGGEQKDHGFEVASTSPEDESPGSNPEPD
T2 sequence (P55211 331-416 limits assumed): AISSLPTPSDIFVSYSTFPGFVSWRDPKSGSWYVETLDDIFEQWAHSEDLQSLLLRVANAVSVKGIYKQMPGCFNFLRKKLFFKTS
Protocol: Caspases-2, -3, -6, -7, -8, -9 and -10 were expressed in E. coli and purified in Guy Salvesen's laboratory at the Burnham Institute, La Jolla, Calif., according to the methods known in the art. Inhibition rates were determined by the progress curve method known in the art. This method is suitable for measuring irreversible inhibition rates with fast inhibitors, where the inhibitor, the substrate and the enzyme are incubated together and the rate of substrate hydrolysis is measured continuously. The rate of substrate hydrolysis in the presence of the inhibitor was monitored for 20 minutes. The progress curve of inhibition, where the product formation approaches an asymptote is described in the equation ln([P∞]−[P])=ln[P∞]−A[I]t where [P] and [P∞] are the product concentrations at t and t=∞ respectively, A is the apparent rate constant in the presence of the substrate. The apparent rate constants were determined from the slopes of plots of ln ([P∞]−[P]) versus time (t) in seconds as previously described, where A=slope/[I].
(§1) For competitive and irreversible inhibition, the apparent rate constant is converted to the second order rate constant k2 by taking into consideration the effect of the substrate concentration on the apparent rate constant. The second order rate constant is described as in the equation: k2=A*(1+[S]/KM)
Assay buffer is a 1:1 mixture of buffer (200 mM Hepes, 100 mM NaCl, 0.02% (w/v) CHAPS, sucrose 20% (w/v)) and 20 mM DTT solution in H2O at pH 7.0). The assay buffer was supplemented with 0.7 M sodium citrate. The enzyme was pre-activated for 10 min at 37° C. in the assay buffer.

Caspase-10 = molecular target: T3, Caspase-10 (Homo sapiens, UniProt Q92851); assay: Caspase-10 progress curve inhibition assay; details: second-order rate constant; Ac-DEVD-AMC substrate; Hepes/PEG buffer pH 7.0
T3 sequence (Q92851 220-415 limits assumed): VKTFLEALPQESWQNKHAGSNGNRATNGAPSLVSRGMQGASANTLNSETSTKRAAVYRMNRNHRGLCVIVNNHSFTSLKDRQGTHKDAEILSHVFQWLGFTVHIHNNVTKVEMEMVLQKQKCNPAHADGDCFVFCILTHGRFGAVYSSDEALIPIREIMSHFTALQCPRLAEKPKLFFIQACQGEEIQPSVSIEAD
T3 sequence (Q92851 416-521 limits assumed): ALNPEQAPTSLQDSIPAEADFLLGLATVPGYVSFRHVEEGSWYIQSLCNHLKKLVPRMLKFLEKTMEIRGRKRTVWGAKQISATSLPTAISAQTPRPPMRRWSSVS

Caspase-8 = Caspase-8 (Homo sapiens, UniProt Q14790); assay: Caspase-8 progress curve inhibition assay; details: second-order rate constant; Ac-DEVD-AMC substrate; Pipes buffer pH 7.2
Caspase-6 = molecular target: T4, Caspase-6 (Homo sapiens, UniProt P55212); assay: Caspase-6 progress curve inhibition assay; details: second-order rate constant; Ac-DEVD-AMC substrate; Pipes buffer pH 7.2
T4 sequence (P55212 24-179 limits assumed): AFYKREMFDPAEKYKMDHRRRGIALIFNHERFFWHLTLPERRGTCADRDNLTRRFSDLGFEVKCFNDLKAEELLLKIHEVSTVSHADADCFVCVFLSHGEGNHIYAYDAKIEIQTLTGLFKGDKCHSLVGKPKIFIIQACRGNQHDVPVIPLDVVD
T4 sequence (P55212 194-293 limits assumed): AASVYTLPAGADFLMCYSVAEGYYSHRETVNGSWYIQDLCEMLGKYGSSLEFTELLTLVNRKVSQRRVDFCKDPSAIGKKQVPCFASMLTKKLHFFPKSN

Caspase-3 = molecular target: T5, Caspase-3 (Homo sapiens, UniProt P42574); assay: Caspase-3 progress curve inhibition assay; details: second-order rate constant; Ac-DEVD-AMC substrate; Pipes buffer pH 7.2
T5 sequence (P42574 29-175 limits assumed): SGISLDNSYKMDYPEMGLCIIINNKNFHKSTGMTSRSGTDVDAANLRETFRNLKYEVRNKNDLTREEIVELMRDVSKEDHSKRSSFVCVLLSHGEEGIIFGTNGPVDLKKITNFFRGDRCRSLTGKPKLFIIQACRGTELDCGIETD
T5 sequence (P42574 176-277 limits assumed): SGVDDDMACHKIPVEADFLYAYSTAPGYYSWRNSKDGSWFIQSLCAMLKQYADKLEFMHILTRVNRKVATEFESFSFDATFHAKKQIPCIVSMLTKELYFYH

Caspase-2 = molecular target: T6, Caspase-2 (Homo sapiens, UniProt P42575); assay: Caspase-2 progress curve inhibition assay; details: second-order rate constant; Cbz-VDVAD-AFC substrate; Pipes buffer pH 7.2
T6 sequence (P42575 170-333 limits assumed): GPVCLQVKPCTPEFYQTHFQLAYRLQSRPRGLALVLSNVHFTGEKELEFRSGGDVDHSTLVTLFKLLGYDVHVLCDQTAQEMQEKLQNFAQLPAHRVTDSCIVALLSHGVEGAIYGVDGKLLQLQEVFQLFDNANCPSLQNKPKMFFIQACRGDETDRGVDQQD
T6 sequence (P42575 348-452 limits assumed): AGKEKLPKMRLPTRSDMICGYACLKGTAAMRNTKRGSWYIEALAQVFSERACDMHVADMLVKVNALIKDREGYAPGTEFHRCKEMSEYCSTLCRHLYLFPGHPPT
Protocol: Inhibition rates were determined by the progress curve method known in the art. This method is suitable for measuring irreversible inhibition rates with fast inhibitors, where the inhibitor, the substrate and the enzyme are incubated together and the rate of substrate hydrolysis is measured continuously. The rate of substrate hydrolysis in the presence of the inhibitor was monitored for 20 minutes. The progress curve of inhibition, where the product formation approaches an asymptote is described in the equation ln([P∞]−[P])=ln[P∞]−A[I]t where [P] and [P∞] are the product concentrations at t and t=∞ respectively, A is the apparent rate constant in the presence of the substrate. The apparent rate constants were determined from the slopes of plots of ln ([P∞]−[P]) versus time (t) in seconds as previously described, where A=slope/[I].
as §1
The concentration of the caspase-3 stock solution was 2 nM in the assay buffer. Assay buffer is a 1:1 mixture of caspase buffer (40 mM Pipes, 200 mM NaCl, 0.2% (w/v) CHAPS, sucrose 20% (w/v)) and 20 mM DTT solution in H2O at pH 7.2. The concentration of the substrate stock solution was 2 mM in DMSO. The enzyme was pre-activated for 10 min at 37° C. in the assay buffer. […] 50 μL of 2 nM enzyme stock solution (final concentration: 1 nM) was added to the mixture after 1 min and reading started immediately for 20 min at 37° C. Inhibition experiments were repeated in duplicate and standard deviations determined.
The inhibitor stock solution concentrations varied from 5×10^−3 M to 1×10^−4 M in DMSO.

S. mansoni legumain = S. mansoni legumain (Schistosoma mansoni, UniProt P09841, N192C); assay: S. mansoni legumain (SmAE) inhibition assay; assay type: biochemical
Protocol: Studies with the propenoyl hydrazides using the schistosome legumain […], (Schistosoma mansoni asparaginyl endopeptidase) were also performed. […] The actual active site enzyme concentration is unknown. The lyophilized enzyme ([…]) was reconstituted in 1.5 mL 0.5 M sodium acetate, pH 4.5 containing 4 mM DTT, and left to stand at 37° C. for 3-4 hours to allow for auto-activation of the zymogen. In a black 96-well microtiter plate, 50 μL of activated enzyme was added to an equal volume of 0.1 M citrate-phosphate buffer pH 6.8 containing 4 mM DTT. Inhibitor stock solutions (20 mM) were prepared in DMSO. Serial dilutions (using water) of inhibitor were added (as 1 μL aliquots) to yield concentrations of between 2 and 0.00002 μM inhibitor. […] After incubating various inhibitor concentrations with enzyme, 100 μL of the same buffer containing 20 μM substrate (Cbz-Ala-Ala-Asn-AMC) was added to the wells and the reaction monitored at room temperature with linear kinetics up to 20 minutes. Inhibitors are tested in duplicate. A plot of the RFU/min versus the inhibitor concentration [μM] permitted calculation of an IC50 value and estimation of the kobs/[I].

Sequence of Clostripain (P09870 51-526): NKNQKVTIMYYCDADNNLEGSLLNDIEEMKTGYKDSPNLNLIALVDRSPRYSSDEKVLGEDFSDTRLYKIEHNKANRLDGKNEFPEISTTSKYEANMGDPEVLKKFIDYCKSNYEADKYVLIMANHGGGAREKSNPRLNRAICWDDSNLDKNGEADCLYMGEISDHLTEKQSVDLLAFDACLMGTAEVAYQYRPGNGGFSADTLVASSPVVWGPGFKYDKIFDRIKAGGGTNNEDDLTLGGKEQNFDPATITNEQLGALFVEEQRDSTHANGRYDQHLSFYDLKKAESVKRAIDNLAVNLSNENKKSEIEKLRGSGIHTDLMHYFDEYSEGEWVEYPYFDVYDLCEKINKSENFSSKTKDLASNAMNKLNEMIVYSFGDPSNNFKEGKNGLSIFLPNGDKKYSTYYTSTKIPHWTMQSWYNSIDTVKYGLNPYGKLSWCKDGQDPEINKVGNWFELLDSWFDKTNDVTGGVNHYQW
Sequence of Gingipain K (Q51817 229-1732 limits assumed): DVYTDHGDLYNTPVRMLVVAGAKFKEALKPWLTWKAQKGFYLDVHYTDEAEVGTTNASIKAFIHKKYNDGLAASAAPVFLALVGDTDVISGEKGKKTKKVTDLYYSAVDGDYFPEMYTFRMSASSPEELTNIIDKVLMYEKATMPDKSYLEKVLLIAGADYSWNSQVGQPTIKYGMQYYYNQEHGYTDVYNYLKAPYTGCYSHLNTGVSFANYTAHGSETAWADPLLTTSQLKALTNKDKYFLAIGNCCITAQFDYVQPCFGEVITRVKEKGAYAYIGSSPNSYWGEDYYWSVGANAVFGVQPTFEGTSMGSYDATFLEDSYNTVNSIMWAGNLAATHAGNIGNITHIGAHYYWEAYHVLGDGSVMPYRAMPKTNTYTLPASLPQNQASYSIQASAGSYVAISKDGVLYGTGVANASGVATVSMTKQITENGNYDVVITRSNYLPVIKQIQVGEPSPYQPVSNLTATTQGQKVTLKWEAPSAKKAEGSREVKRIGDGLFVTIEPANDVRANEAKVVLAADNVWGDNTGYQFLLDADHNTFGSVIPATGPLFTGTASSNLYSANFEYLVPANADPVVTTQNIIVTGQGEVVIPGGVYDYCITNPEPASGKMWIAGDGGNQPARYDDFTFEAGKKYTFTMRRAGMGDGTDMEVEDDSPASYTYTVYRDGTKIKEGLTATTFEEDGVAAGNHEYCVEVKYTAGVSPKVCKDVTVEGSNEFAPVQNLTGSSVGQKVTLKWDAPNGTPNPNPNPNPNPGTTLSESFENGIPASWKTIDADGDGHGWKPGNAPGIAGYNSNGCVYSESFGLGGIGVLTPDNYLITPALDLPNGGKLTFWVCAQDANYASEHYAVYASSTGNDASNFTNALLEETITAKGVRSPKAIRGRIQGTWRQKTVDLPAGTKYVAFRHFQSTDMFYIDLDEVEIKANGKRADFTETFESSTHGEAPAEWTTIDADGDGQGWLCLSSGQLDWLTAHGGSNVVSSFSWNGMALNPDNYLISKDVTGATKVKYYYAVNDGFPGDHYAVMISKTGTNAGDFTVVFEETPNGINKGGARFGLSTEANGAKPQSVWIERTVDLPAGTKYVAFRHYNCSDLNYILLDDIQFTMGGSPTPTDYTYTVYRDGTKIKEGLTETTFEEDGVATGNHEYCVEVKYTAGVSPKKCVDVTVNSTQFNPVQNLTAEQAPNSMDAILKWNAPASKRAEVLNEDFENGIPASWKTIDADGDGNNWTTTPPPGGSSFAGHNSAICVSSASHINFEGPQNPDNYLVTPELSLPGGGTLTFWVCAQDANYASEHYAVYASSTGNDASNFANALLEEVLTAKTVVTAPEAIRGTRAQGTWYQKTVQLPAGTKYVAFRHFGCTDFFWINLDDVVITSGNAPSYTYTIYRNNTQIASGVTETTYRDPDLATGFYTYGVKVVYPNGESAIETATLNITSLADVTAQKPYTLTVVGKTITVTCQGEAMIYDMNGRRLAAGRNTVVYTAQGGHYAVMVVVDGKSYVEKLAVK
Sequence of Caspase-8 (Q14790 217-374 limits assumed): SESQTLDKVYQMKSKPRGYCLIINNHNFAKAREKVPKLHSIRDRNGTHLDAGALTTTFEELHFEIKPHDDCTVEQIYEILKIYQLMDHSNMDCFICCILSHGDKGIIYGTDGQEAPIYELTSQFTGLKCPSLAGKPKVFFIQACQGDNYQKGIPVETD
Sequence of Caspase-8 (Q14790 385-479 limits assumed): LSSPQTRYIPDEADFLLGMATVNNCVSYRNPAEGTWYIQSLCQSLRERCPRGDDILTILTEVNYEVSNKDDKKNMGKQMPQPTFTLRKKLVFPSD
Sequence of S. mansoni legumain (P09841 32-291 N192C): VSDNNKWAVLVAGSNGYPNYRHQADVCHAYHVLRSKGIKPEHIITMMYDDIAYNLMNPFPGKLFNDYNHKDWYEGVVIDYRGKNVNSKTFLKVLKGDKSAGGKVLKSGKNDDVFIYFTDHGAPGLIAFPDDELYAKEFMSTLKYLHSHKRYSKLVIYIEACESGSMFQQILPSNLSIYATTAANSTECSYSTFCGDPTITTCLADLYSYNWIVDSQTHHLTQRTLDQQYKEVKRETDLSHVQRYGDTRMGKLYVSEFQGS

SMILES | k2 Clostripain (Clostripain) | k2 Gingipain K (Gingipain K) | k2 Gingipain R (Gingipain R) | further results
CC(NC(=O)OCc1ccccc1)C(=O)NC(C)C(=O)NN(CC(N)=O)C(=O)C=CC(=O)N(C)c1ccc2ccccc2c1 (centres unmarked) |  |  |  | kobs/[I] Gingipain K (Gingipain K; Table 6, legumain specific inhibitors, NI = no inhibition after 20 minutes of incubation): 6 M⁻¹ s⁻¹
CC(C)C[C@H](NC(=O)CCc1ccccc1)C(=O)NN(CCCCN)C(=O)C=CC(=O)N(Cc1ccccc1)Cc1ccc2ccccc2c1 | 17,500 M^−1s^−1 | 811,000 M^−1s^−1 | 98 M⁻¹ s⁻¹ | 
CC(C)CC(NC(=O)CCc1ccccc1)C(=O)NN(CCCCN)C(=O)C=CC(=O)N(C)Cc1cccc2ccccc12 (centres unmarked) | 639 M⁻¹ s⁻¹ | 975,000 M^−1s^−1 | 576 M⁻¹ s⁻¹ | 
CC(C)C[C@H](NC(=O)OCc1ccccc1)C(=O)N[C@@H](CCC(=O)O)C(=O)N[C@H](C(=O)NN(CC(=O)O)C(=O)/C=C/C(=O)N(C)CCc1ccccc1)[C@@H](C)O (relative stereo) [N^2—(N-Benzyloxycarbonylleucylglutamylthreonyl)-N^1-carboxylmethyl-N^1-trans-(3-methylphenylethylcarbamoylpropenoyl)hydrazine] |  |  |  | k2 Caspase-7 (Caspase-7): 290 M⁻¹ s⁻¹; k2 Caspase-9 (Caspase-9): 960 M⁻¹ s⁻¹; k2 Caspase-10 (Caspase-10): 6,190 M^−1s^−1; k2 Caspase-8 (Caspase-8): 65,300 M^−1s^−1; k2 Caspase-6 (Caspase-6): 2,550 M^−1s^−1; k2 Caspase-3 (Caspase-3): 2,620 M^−1s^−1; k2 Caspase-2 (Caspase-2): 50 M⁻¹ s⁻¹
C[C@H](NC(=O)OCc1ccccc1)C(=O)N[C@@H](C)C(=O)NN(CC(N)=O)C(=O)/C=C/C(=O)N1CCc2ccccc21 [Cbz-Ala-Ala-AAsn-CH═CH—CO-indoline, N^2—(N-Benzyloxycarbonylalanylalanyl)-N^1-carbamoylmethyl-N^1-trans-(3-(2,3-dihydroindol-1-yloxo)propenoyl)hydrazine] |  |  |  | kinact/KI (Gingipain K): 1 M⁻¹ s⁻¹; IC50 (S. mansoni legumain): 70 nM
C[C@H](NC(=O)OCc1ccccc1)C(=O)N[C@@H](C)C(=O)NN(CC(N)=O)C(=O)/C=C/C(=O)N(C)Cc1ccccc1 [Cbz-Ala-Ala-AAsn-CH═CH—CON(CH3)Bzl, N^2—(N-Benzyloxycarbonylalanylalanyl)-N^1-carbamoylmethyl-N^1-trans-(3-benzylmethylcarbamoylpropenoyl)hydrazine] |  |  |  | kinact/KI (Gingipain K): 1 M⁻¹ s⁻¹
CCOC(=O)C=CC(=O)N(CCCN)NC(=O)C(C)NC(=O)CCc1ccccc1 (centres unmarked) [PhPr-Ala-AOrn-CH═CH—COOEt] |  | 632,000 M^−1s^−1 | 18 M⁻¹ s⁻¹ | 
CC(C)CC(NC(=O)CCc1ccccc1)C(=O)NN(CCCNC(=N)N)C(=O)C=CC(=O)N(Cc1ccccc1)Cc1ccccc1 (centres unmarked) [PhPr-Leu-AArg-CH═CH—CON(CH2Ph)2] | 474,000 M^−1s^−1 |  | 804,000 M^−1s^−1 | 
CC(C)CC(NC(=O)CCc1ccccc1)C(=O)NN(CCCNC(=N)N)C(=O)C=CC(=O)NCc1ccccc1 (centres unmarked) [PhPr-Leu-AArg-CH═CH—CONHCH2Ph] | 287,000 M^−1s^−1 |  | 555,000 M^−1s^−1 | 
CCOC(=O)C=CC(=O)N(CCCNC(=N)N)NC(=O)C(CC(C)C)NC(=O)CCc1ccccc1 (centres unmarked) [PhPr-Leu-AArg-CH═CH—COOEt] | 69,600 M^−1s^−1 | 1,580 M^−1s^−1 |  | 
CC(C)C[C@H](NC(=O)CCc1ccccc1)C(=O)NN(CCCCN)C(=O)C=CC(=O)N(Cc1ccccc1)Cc1ccc(F)cc1 [PhPr-Leu-ALys-CH═CH—CON(Bzl)-p-CH2C6H4F] | 13,800 M^−1s^−1 | 801,000 M^−1s^−1 | 75 M⁻¹ s⁻¹ | 
CC(C)CC(NC(=O)CCc1ccccc1)C(=O)NN(CCCCN)C(=O)C=CC(=O)N(Cc1cccc2ccccc12)Cc1cccc2ccccc12 (centres unmarked) [PhPr-Leu-ALys-CH═CH—CON(CH2-1-naphthyl2] | 2,250 M^−1s^−1 | 1,890,000 M^−1s^−1 | 214 M⁻¹ s⁻¹ | 
CC(C)CC(NC(=O)CCc1ccccc1)C(=O)NN(CCCCN)C(=O)C=CC(=O)N(Cc1ccccc1)Cc1ccccc1 (centres unmarked) [PhPr-Leu-ALys-CH═CH—CON(CH2Ph)2] | 20,000 M^−1s^−1 | 2,130,000 M^−1s^−1 | 65 M⁻¹ s⁻¹ | 
CC(C)CC(NC(=O)CCc1ccccc1)C(=O)NN(CCCCN)C(=O)C=CC(=O)N(C)Cc1ccccc1 (centres unmarked) [PhPr-Leu-ALys-CH═CH—CON(Me)CH2Ph] | 6,000 M^−1s^−1 | 1,360,000 M^−1s^−1 | 79 M⁻¹ s⁻¹ | 
CC(C)C[C@H](NC(=O)CCc1ccccc1)C(=O)NN(CCCCN)C(=O)C=CC(=O)NCc1ccccc1 [PhPr-Leu-ALys-CH═CH—CONHCH2Ph] | 1,050 M^−1s^−1 | 236,000 M^−1s^−1 | 20 M⁻¹ s⁻¹ | 
CC(C)CC(NC(=O)CCc1ccccc1)C(=O)NN(CCCCN)C(=O)C=CC(=O)OCc1ccccc1 (centres unmarked) [PhPr-Leu-ALys-CH═CH—COOCH2Ph] | 20,500 M^−1s^−1 |  | 632 M⁻¹ s⁻¹ | 
CC(C)C[C@H](NC(=O)CCc1ccccc1)C(=O)NN(CCCN)C(=O)C=CC(=O)N(Cc1ccccc1)Cc1ccccc1 [PhPr-Leu-AOrn-CH═CH—CON(CH2Ph)2] | 541 M⁻¹ s⁻¹ | 61,600 M^−1s^−1 | 541 M⁻¹ s⁻¹ | 
CC(C)C[C@H](NC(=O)CCc1ccccc1)C(=O)NN(CCCN)C(=O)C=CC(=O)NCc1ccccc1 [PhPr-Leu-AOrn-CH═CH—CONHCH2Ph] |  | 24,700 M^−1s^−1 | 71 M⁻¹ s⁻¹ | 
